In publication PMC4335062, “Data-Driven Prediction and Design of bZIP Coiled-Coil Interactions” (PLoS Computational Biology, 2015):
Like-named read-outs stand apart in the source and are kept apart here. Where no end group is shown, it is not given here.

Key:
Test in all cases: Direct-binding FRET assay
Parameters in all cases: made in house
ATF6 = ATF6 (Homo sapiens, UniProt P18850); details: read-out: Kd
Protocol: (§1) The direct binding assay was performed manually in 384-well plates and is similar to a previously described assay. Wells were filled with 20 μL of 1 mM TCEP-HCl. A 4 μM stock of acceptor protein was made fresh in 1 mM TCEP-HCl, and 20 μL was titrated in 2-fold dilutions over the wells. […] The direct-binding FRET data were fit as previously described. Briefly, the Kd of the designed peptide homodimer was experimentally determined and used with previously determined target homodimer Kd values to determine the heterodimer Kd. The homodimer Kd values used for the human bZIPs were from; experiments done by […] et al. used the same protein constructs for the human bZIP proteins, the same buffer conditions, and the same assay. The fitting used a system of ordinary differential equations to describe the concentrations of homo and heterodimers formed by the donor (D) and acceptor (A) as a function of the heterodimer Kd. MATLAB was used to simulate the binding experiment for different Kd values, and the value that gave the best agreement between simulation and experiment was assigned. A minimum 15% change in the donor fluorescence upon titrating the acceptor peptide from 0 to 1000 nM was required for a fit to be attempted. If this minimum was not met, the interaction was classified as “NS” for no signal change. […] These interactions were marked “AS” to indicate anomalous signal. We attributed this to interactions between the peptides, the dyes and the walls of the assay plates at low concentrations. These curves could not be fit, given their unusual shapes at low concentrations of acceptor. For such curves, we removed the first five points and re-fit the data. […] One example of this is increasing concentrations of acceptor causing an increase in donor fluorescence.

MAFB = MAFB (Homo sapiens, UniProt Q9Y5Q3); details: mean or single, read-out: Kd
Protocol: as §1

BACH2 = BACH2 (Homo sapiens, UniProt Q9BYV9); details: read-out: Kd
Protocol: as §1

MAF = MAF (Homo sapiens, UniProt O75444); details: mean or single, read-out: Kd
Protocol: as §1

BACH1 = BACH1 (Homo sapiens, UniProt O14867); details: read-out: Kd
Protocol: as §1

NFE2L1 = NFE2L1 (Homo sapiens, UniProt Q14494); details: read-out: Kd
Protocol: as §1

MAFG = MAFG (Homo sapiens, UniProt O15525); details: read-out: Kd
Protocol: (§2) The direct binding assay was performed manually in 384-well plates and is similar to a previously described assay. Wells were filled with 20 μL of 1 mM TCEP-HCl. A 4 μM stock of acceptor protein was made fresh in 1 mM TCEP-HCl, and 20 μL was titrated in 2-fold dilutions over the wells. […] The direct-binding FRET data were fit as previously described. Briefly, the Kd of the designed peptide homodimer was experimentally determined and used with previously determined target homodimer Kd values to determine the heterodimer Kd. The homodimer Kd values used for the human bZIPs were from; experiments done by […] et al. used the same protein constructs for the human bZIP proteins, the same buffer conditions, and the same assay. The fitting used a system of ordinary differential equations to describe the concentrations of homo and heterodimers formed by the donor (D) and acceptor (A) as a function of the heterodimer Kd. MATLAB was used to simulate the binding experiment for different Kd values, and the value that gave the best agreement between simulation and experiment was assigned. A minimum 15% change in the donor fluorescence upon titrating the acceptor peptide from 0 to 1000 nM was required for a fit to be attempted. If this minimum was not met, the interaction was classified as “NS” for no signal change. […] For such curves, we removed the first five points and re-fit the data.

JUN = JUN (Homo sapiens, UniProt P05412); details: read-out: Kd
Protocol: as §2

ATF6B = ATF6B (Homo sapiens, UniProt Q99941); details: read-out: Kd
Protocol: as §2

FOS = FOS (Homo sapiens, UniProt P01100); details: read-out: Kd
Protocol: as §2

[1] = 4°C, C-terminal rhodamine design, mean or single
[2] = 4°C, N-terminal rhodamine design, mean or single
[3] = 23°C, C-terminal rhodamine design, mean or single
[4] = 23°C, N-terminal rhodamine design, mean or single
[5] = 37°C, C-terminal rhodamine design, mean or single
[6] = 37°C, N-terminal rhodamine design, mean or single
[7] = 4°C, C-terminal rhodamine design
[8] = 4°C, N-terminal rhodamine design
[9] = 23°C, C-terminal rhodamine design
[10] = 37°C, C-terminal rhodamine design
[11] = 37°C, N-terminal rhodamine design
[12] = 23°C, N-terminal rhodamine design
[13] = 23°C, C-terminal rhodamine design, repeat 1
[14] = 37°C, C-terminal rhodamine design, repeat 1
[15] = 37°C, C-terminal rhodamine design, repeat 2
[16] = 4°C, C-terminal fluorescein design as donor, TAMRA target titrated
[17] = 23°C, C-terminal fluorescein design as donor, TAMRA target titrated
[18] = 37°C, C-terminal fluorescein design as donor, TAMRA target titrated
[19] = 23°C, N-terminal rhodamine design, repeat 1
[20] = 23°C, N-terminal rhodamine design, repeat 2
[21] = 37°C, N-terminal rhodamine design, repeat 1
[22] = 37°C, N-terminal rhodamine design, repeat 2
[23] = 4°C, C-terminal rhodamine design, repeat 1

Sequence of ATF6B (Q99941 325-388 limits assumed): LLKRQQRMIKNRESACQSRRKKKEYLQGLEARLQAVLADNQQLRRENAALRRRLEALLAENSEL
Sequence of MAFG (O15525 51-114 limits assumed): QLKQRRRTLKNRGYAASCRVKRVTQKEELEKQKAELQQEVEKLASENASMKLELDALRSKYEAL
Sequence of BACH1 (O14867 557-620 limits assumed): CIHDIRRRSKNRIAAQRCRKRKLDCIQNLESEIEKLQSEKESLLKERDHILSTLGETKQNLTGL
Sequence of BACH2 (Q9BYV9 646-709 limits assumed): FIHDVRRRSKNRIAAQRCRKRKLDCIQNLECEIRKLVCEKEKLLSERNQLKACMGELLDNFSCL
Sequence of ATF6 (P18850 306-369 limits assumed): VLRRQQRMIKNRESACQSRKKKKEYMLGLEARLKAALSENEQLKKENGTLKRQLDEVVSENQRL
Sequence of NFE2L1 (Q14494 654-717 limits assumed): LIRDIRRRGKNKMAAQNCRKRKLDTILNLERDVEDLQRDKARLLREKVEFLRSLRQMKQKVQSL

KRIAYLRQRIAELRNENHVLESRIQRMEKEKDALQQDRDHLEYEL [ATF5-d1]
Kd (ATF6; [1]): > 5000 nM
Kd (ATF6; [2]): > 5000 nM
Kd (ATF6; [3]): > 1000 nM
Kd (ATF6; [4]): > 5000 nM
Kd (ATF6; [5]): > 1000 nM
Kd (ATF6; [6]): > 5000 nM
Kd (MAFB; [7]): 725 nM
Kd (MAFB; [8]): > 5000 nM
Kd (MAFB; [9]): > 5000 nM
Kd (MAFB; [10]): > 1000 nM
Kd (MAFB; [11]): > 5000 nM
Kd (BACH2; [1]): > 5000 nM
Kd (BACH2; [2]): > 1000 nM
Kd (BACH2; [3]): > 5000 nM
Kd (BACH2; [4]): > 5000 nM
Kd (BACH2; [5]): > 5000 nM
Kd (BACH2; [6]): > 5000 nM
Kd (MAF; [7]): 790 nM
Kd (MAF; [8]): > 5000 nM
Kd (MAF; [9]): > 5000 nM
Kd (MAF; [12]): > 5000 nM
Kd (MAF; [10]): > 1000 nM
Kd (BACH1; [1]): > 1000 nM
Kd (BACH1; [2]): > 5000 nM
Kd (BACH1; [3]): > 1000 nM
Kd (BACH1; [4]): > 5000 nM
Kd (BACH1; [5]): > 5000 nM
Kd (BACH1; [6]): > 1000 nM
Kd (NFE2L1; [1]): > 5000 nM
Kd (NFE2L1; [2]): > 1000 nM
Kd (NFE2L1; [3]): > 5000 nM
Kd (NFE2L1; [4]): > 1000 nM
Kd (NFE2L1; [5]): > 5000 nM
Kd (NFE2L1; [6]): > 1000 nM
Kd (MAFG; [1]): > 5000 nM
Kd (MAFG; [3]): > 1000 nM
Kd (MAFG; [4]): > 1000 nM
Kd (MAFG; [5]): > 1000 nM
Kd (MAFG; [6]): > 1000 nM
Kd (JUN; [1]): 119 nM
Kd (JUN; [2]): > 5000 nM
Kd (JUN; [3]): > 5000 nM
Kd (JUN; [4]): > 5000 nM
Kd (JUN; [5]): > 5000 nM
Kd (JUN; [6]): > 5000 nM
Kd (ATF6B; [2]): > 5000 nM
Kd (ATF6B; [13]): > 5000 nM
Kd (ATF6B; 23°C, C-terminal rhodamine design, repeat 2): > 5000 nM
Kd (ATF6B; [4]): > 5000 nM
Kd (ATF6B; [14]): > 5000 nM
Kd (ATF6B; [15]): > 5000 nM
Kd (FOS; [2]): 89.6 nM
Kd (FOS; [4]): 753 nM
Kd (FOS; [14]): > 5000 nM
Kd (FOS; [15]): > 5000 nM

NQIKTLRTRLSKLRKDNLQLEKDIANLERKAKDLRAEKEQLEYEL [ATF4-d1]
Kd (ATF6; [16]): > 1000 nM
Kd (ATF6; [1]): > 1000 nM
Kd (ATF6; [2]): > 1000 nM
Kd (ATF6; [17]): > 1000 nM
Kd (ATF6; [3]): > 1000 nM
Kd (ATF6; [4]): > 1000 nM
Kd (ATF6; [18]): > 1000 nM
Kd (ATF6; [5]): > 1000 nM
Kd (ATF6; [6]): > 1000 nM
Kd (MAFB; [7]): > 5000 nM
Kd (MAFB; [8]): > 1000 nM
Kd (MAFB; [9]): > 5000 nM
Kd (MAFB; [12]): > 1000 nM
Kd (MAFB; [10]): 402 nM
Kd (MAFB; [11]): > 1000 nM
Kd (BACH2; [16]): > 1000 nM
Kd (BACH2; [1]): > 5000 nM
Kd (BACH2; [2]): > 1000 nM
Kd (BACH2; [17]): > 5000 nM
Kd (BACH2; [3]): > 1000 nM
Kd (BACH2; [4]): > 5000 nM
Kd (BACH2; [18]): > 1000 nM
Kd (BACH2; [5]): > 5000 nM
Kd (BACH2; [6]): > 1000 nM
Kd (MAF; [7]): > 5000 nM
Kd (MAF; [8]): > 1000 nM
Kd (MAF; [9]): > 5000 nM
Kd (MAF; [12]): > 1000 nM
Kd (MAF; [10]): 460 nM
Kd (MAF; [11]): > 1000 nM
Kd (BACH1; [16]): > 1000 nM
Kd (BACH1; [1]): > 5000 nM
Kd (BACH1; [17]): > 1000 nM
Kd (BACH1; [3]): > 1000 nM
Kd (BACH1; [19]): > 1000 nM
Kd (BACH1; [20]): > 5000 nM
Kd (BACH1; [18]): > 1000 nM
Kd (BACH1; [5]): > 1000 nM
Kd (BACH1; [6]): > 1000 nM
Kd (BACH1; [21]): > 1000 nM
Kd (BACH1; [22]): > 1000 nM
Kd (NFE2L1; [1]): > 5000 nM
Kd (NFE2L1; 4°C, N-terminal rhodamine design, repeat 1): > 1000 nM
Kd (NFE2L1; 4°C, N-terminal rhodamine design, repeat 2): > 1000 nM
Kd (NFE2L1; [3]): > 5000 nM
Kd (NFE2L1; [4]): > 1000 nM
Kd (NFE2L1; [19]): > 1000 nM
Kd (NFE2L1; [20]): > 1000 nM
Kd (NFE2L1; [5]): > 1000 nM
Kd (NFE2L1; [6]): > 1000 nM
Kd (NFE2L1; [21]): > 1000 nM
Kd (NFE2L1; [22]): > 1000 nM
Kd (MAFG; [23]): > 5000 nM
Kd (MAFG; [2]): > 1000 nM
Kd (MAFG; [13]): > 5000 nM
Kd (MAFG; [4]): > 1000 nM
Kd (MAFG; [14]): 200 to 1000 nM
Kd (MAFG; [6]): > 1000 nM
Kd (JUN; [16]): > 1000 nM
Kd (JUN; [1]): < 200 nM
Kd (JUN; [2]): > 1000 nM
Kd (JUN; [17]): > 1000 nM
Kd (JUN; [3]): < 200 nM
Kd (JUN; [4]): > 5000 nM
Kd (JUN; [18]): > 1000 nM
Kd (JUN; [5]): 623 nM
Kd (JUN; [6]): > 5000 nM
Kd (ATF6B; [16]): > 1000 nM
Kd (ATF6B; [23]): > 5000 nM
Kd (ATF6B; [2]): > 1000 nM
Kd (ATF6B; [17]): > 1000 nM
Kd (ATF6B; [13]): > 5000 nM
Kd (ATF6B; [4]): > 1000 nM
Kd (ATF6B; [18]): > 1000 nM
Kd (ATF6B; [14]): > 5000 nM
Kd (ATF6B; [6]): > 1000 nM
Kd (FOS; [2]): 133 nM
Kd (FOS; [17]): > 1000 nM
Kd (FOS; [13]): > 5000 nM
Kd (FOS; [4]): > 1000 nM
Kd (FOS; [18]): > 1000 nM
Kd (FOS; [14]): > 1000 nM
Kd (FOS; [6]): > 1000 nM
